Several values for one entry are separate records, joined by “and”; a condition that tells them apart may be missing. Equal entries are not always repeated. HELM strings list units from the 5' end as sugar, base in round brackets, then linkage (d deoxyribose, r ribose, m 2'-O-methyl, p phosphodiester). Strings are as the collection lists them, not checked against the first reports. ss, as = sense and antisense strand; [una] = unlocked nucleic acid; [s4r] = 4'-thioribose; [fl2r] = 2'-fluoro
Conditions: siRNA
Further: test system not given here.

## RNA1{[fl2r](A)p.r(C)p.[fl2r](A)p.r(U)p.[fl2r](A)p.r(G)p.[fl2r](A)p.r(G)p.[fl2r](G)p.r(A)p.[fl2r](A)p.r(G)p.r(A)p.r(C)p.r(G)p.r(C)p.r(G)p.r(G)p.r(A)p.r(T)p.r(T)}|RNA2{[fl2r](U)p.r(C)p.[fl2r](C)p.r(G)p.[fl2r](C)p.r(G)p.[fl2r](U)p.r(C)p.[fl2r](U)p.r(U)p.[fl2r](C)p.r(C)p.[fl2r](U)p.r(C)p.[fl2r](U)p.r(A)p.[fl2r](U)p.r(G)p.r(U)p.r(T)p.r(T)}$$$RNA1{StrandType:ss}|RNA2{StrandType:as}$
  target mRNA knockdown: 57%

## RNA1{m(A)p.m(A)p.r(C)p.r(C)p.r(C)p.m(A)p.r(C)p.r(C)p.m(A)p.r(C)p.m(A)p.r(G)p.r(C)p.m(U)p.m(A)p.r(G)p.m(A)p.m(A)p.r(C)p.m(U)p.m(U)}|RNA2{r(A)p.r(A)p.r(G)p.r(U)p.r(U)p.r(C)p.m(U)p.m(A)p.r(G)p.r(C)p.r(U)p.r(G)p.r(U)p.r(G)p.r(G)p.r(U)p.r(G)p.r(G)p.r(G)p.r(U)p.r(U)}$$$RNA1{StrandType:ss}|RNA2{StrandType:as}$
  target mRNA knockdown: 44%

## RNA1{m(U)p.r(U)p.m(A)p.r(C)p.m(A)p.r(A)p.m(A)p.r(G)p.m(G)p.r(A)p.m(U)p.r(C)p.m(U)p.r(C)p.m(C)p.r(U)p.m(C)p.r(C)p.m(C)p.r(T)p.r(T)}|RNA2{r(G)p.r(G)p.r(G)p.m(A)p.r(G)p.r(G)p.m(A)p.r(G)p.m(A)p.r(U)p.r(C)p.r(C)p.r(U)p.r(U)p.r(U)p.r(G)p.r(U)p.m(A)p.m(A)p.r(T)p.r(T)}$$$RNA1{StrandType:ss}|RNA2{StrandType:as}$
  target mRNA knockdown: 51%

## RNA1{[fl2r](C)p.r(U)p.[fl2r](A)p.r(G)p.[fl2r](A)p.r(G)p.[fl2r](G)p.r(A)p.[fl2r](U)p.r(C)p.[fl2r](U)p.r(U)p.[fl2r](G)p.r(A)p.[fl2r](A)p.r(G)p.[fl2r](A)p.r(C)p.r(C)p.r(T)p.r(T)}|RNA2{r(G)p.r(G)p.r(U)p.r(C)p.r(U)p.r(U)p.r(C)p.r(A)p.r(A)p.r(G)p.r(A)p.r(U)p.r(C)p.r(C)p.r(U)p.r(C)p.r(U)p.r(A)p.r(G)p.r(T)p.r(T)}$$$RNA1{StrandType:ss}|RNA2{StrandType:as}$
  target mRNA knockdown: 61%

## RNA1{r(A)p.r(G)p.r(U)p.r(C)p.r(C)p.r(C)p.r(U)p.r(G)p.r(G)p.r(A)p.r(G)p.r(C)p.r(C)p.r(U)p.m(U)p.m(A)p.r(A)p.r(A)p.r(C)p.r(T)p.r(T)}|RNA2{r(G)p.r(U)p.r(U)p.r(U)p.m(A)p.r(A)p.r(G)p.r(G)p.r(C)p.r(U)p.r(C)p.r(C)p.r(A)p.r(G)p.r(G)p.r(G)p.r(A)p.r(C)p.r(U)p.r(T)p.r(T)}$$$RNA1{StrandType:ss}|RNA2{StrandType:as}$
  target mRNA knockdown: 62%

## RNA1{r(A)p.r(C)p.r(G)p.r(G)p.r(C)p.r(U)p.r(C)p.r(G)p.r(C)p.[fl2r](U)p.r(A)p.r(C)p.r(C)p.r(C)p.r(U)p.r(C)p.r(G)p.r(A)p.r(C)p.r(T)p.r(T)}|RNA2{r(G)p.r(U)p.r(C)p.r(G)p.r(A)p.r(G)p.r(G)p.r(G)p.[fl2r](U)p.r(A)p.r(G)p.r(C)p.r(G)p.r(A)p.r(G)p.r(C)p.r(C)p.r(G)p.r(U)p.r(T)p.r(T)}$$$RNA1{StrandType:ss}|RNA2{StrandType:as}$
  target mRNA knockdown: 78%

## RNA1{r(C)p.r(G)p.r(A)p.r(A)p.r(A)p.r(G)p.r(U)p.r(G)p.r(U)p.r(A)p.r(U)p.r(C)p.r(C)p.r(G)p.r(A)p.r(A)p.r(G)p.r(A)p.r(C)p.r(T)p.r(T)}|RNA2{r(G)p.r(U)p.r(C)p.r(U)p.r(U)p.r(C)p.r(G)p.r(G)p.r(A)p.[fl2r](U)p.r(A)p.r(C)p.r(A)p.r(C)p.r(U)p.r(U)p.r(U)p.r(C)p.r(G)p.r(T)p.r(T)}$$$RNA1{StrandType:ss}|RNA2{StrandType:as}$
  target mRNA knockdown: 69%

## RNA1{m(G)p.r(G)p.m(A)p.r(G)p.m(C)p.r(A)p.m(C)p.r(G)p.m(C)p.r(U)p.m(U)p.r(A)p.m(C)p.r(U)p.m(A)p.r(C)p.m(C)p.r(U)p.m(U)p.r(T)p.r(T)}|RNA2{r(A)p.r(A)p.r(G)p.r(G)p.r(U)p.r(A)p.r(G)p.r(U)p.r(A)p.r(A)p.r(G)p.r(C)p.r(G)p.r(U)p.r(G)p.r(C)p.r(U)p.r(C)p.r(C)p.r(T)p.r(T)}$$$RNA1{StrandType:ss}|RNA2{StrandType:as}$
  target mRNA knockdown: 51%

## RNA1{[fl2r](A)p.r(G)p.[fl2r](U)p.r(U)p.[fl2r](U)p.r(C)p.[fl2r](U)p.r(A)p.[fl2r](G)p.r(G)p.[fl2r](G)p.[fl2r](C)p.r(C)p.[fl2r](G)p.r(U)p.r(G)p.[fl2r](G)p.r(C)p.r(C)p.r(T)p.r(T)}|RNA2{r(G)p.r(G)p.r(C)p.r(C)p.r(A)p.r(C)p.r(G)p.r(G)p.r(C)p.r(C)p.r(C)p.r(U)p.r(A)p.r(G)p.r(A)p.r(A)p.r(A)p.r(C)p.r(U)p.r(T)p.r(T)}$$$RNA1{StrandType:ss}|RNA2{StrandType:as}$
  target mRNA knockdown: 75%

## RNA1{r(G)p.r(G)p.r(A)p.r(C)p.r(A)p.r(U)p.r(U)p.r(C)p.r(A)p.r(G)p.r(A)p.r(A)p.r(C)p.r(A)p.r(A)p.r(G)p.r(A)p.r(A)p.r(A)p.[una](U)p.[una](U)}|RNA2{[una](U)p.r(U)p.r(U)p.r(C)p.r(U)p.r(U)p.r(G)p.r(U)p.r(U)p.r(C)p.r(U)p.r(G)p.r(A)p.r(A)p.r(U)p.r(G)p.r(U)p.r(C)p.r(C)p.[una](U)p.[una](U)}$$$RNA1{StrandType:ss}|RNA2{StrandType:as}$
  target mRNA knockdown: 75%

## RNA1{m(U)p.r(A)p.r(A)p.r(A)p.r(G)p.r(C)p.r(U)p.r(G)p.r(G)p.r(A)p.r(A)p.r(A)p.r(G)p.r(G)p.r(G)p.r(A)p.r(C)p.r(G)p.r(G)p.r(T)p.r(T)}|RNA2{r(C)p.r(C)p.r(G)p.r(U)p.r(C)p.r(C)p.r(C)p.r(U)p.r(U)p.r(U)p.r(C)p.r(C)p.r(A)p.r(G)p.r(C)p.r(U)p.r(U)p.m(U)p.r(A)p.r(T)p.r(T)}$$$RNA1{StrandType:ss}|RNA2{StrandType:as}$
  target mRNA knockdown: 67%

## RNA1{[s4r](C)p.[s4r](G)p.[s4r](U)p.[s4r](A)p.[s4r](C)p.[s4r](G)p.r(C)p.r(G)p.r(G)p.r(A)p.r(A)p.r(U)p.r(A)p.[s4r](C)p.[s4r](U)p.[s4r](U)p.[s4r](C)p.[s4r](G)p.[s4r](A)p.r(T)p.r(T)}|RNA2{r(U)p.r(C)p.r(G)p.r(A)p.r(A)p.r(G)p.r(U)p.r(A)p.r(U)p.r(U)p.r(C)p.r(C)p.r(G)p.r(C)p.r(G)p.[s4r](U)p.[s4r](A)p.[s4r](C)p.[s4r](G)p.r(T)p.r(T)}$$$RNA1{StrandType:ss}|RNA2{StrandType:as}$
  target mRNA knockdown: 44.4%

## RNA1{r(G)p.r(G)p.r(A)p.r(G)p.r(C)p.m(U)p.r(A)p.r(G)p.r(A)p.r(C)p.r(G)p.r(G)p.r(G)p.m(U)p.r(A)p.r(C)p.r(G)p.r(A)p.r(G)p.r(T)p.r(T)}|RNA2{r(C)p.r(U)p.r(C)p.r(G)p.m(U)p.r(A)p.r(C)p.r(C)p.r(C)p.r(G)p.r(U)p.r(C)p.m(U)p.r(A)p.r(G)p.r(C)p.r(U)p.r(C)p.r(C)p.r(T)p.r(T)}$$$RNA1{StrandType:ss}|RNA2{StrandType:as}$
  target mRNA knockdown: 82%

## RNA1{r(C)p.r(G)p.r(U)p.r(A)p.r(C)p.r(G)p.r(C)p.r(G)p.r(G)p.r(A)p.r(A)p.r(U)p.r(A)p.r(C)p.r(U)p.r(U)p.r(C)p.r(G)p.r(A)p.r(T)p.r(T)}|RNA2{[s4r](U)p.[s4r](C)p.r(G)p.r(A)p.r(A)p.r(G)p.[s4r](U)p.r(A)p.[s4r](U)p.[s4r](U)p.[s4r](C)p.[s4r](C)p.r(G)p.[s4r](C)p.r(G)p.[s4r](U)p.r(A)p.[s4r](C)p.r(G)p.r(T)p.r(T)}$$$RNA1{StrandType:ss}|RNA2{StrandType:as}$
  target mRNA knockdown: 27.5%

## RNA1{r(U)p.m(U)p.r(A)p.r(A)p.r(A)p.r(G)p.r(G)p.r(G)p.r(C)p.r(G)p.r(A)p.r(G)p.r(A)p.r(A)p.r(G)p.r(A)p.r(C)p.r(C)p.r(G)p.r(T)p.r(T)}|RNA2{r(C)p.r(G)p.r(G)p.r(U)p.r(C)p.r(U)p.r(U)p.r(C)p.r(U)p.r(C)p.r(G)p.r(C)p.r(C)p.r(C)p.r(U)p.r(U)p.m(U)p.r(A)p.r(A)p.r(T)p.r(T)}$$$RNA1{StrandType:ss}|RNA2{StrandType:as}$
  target mRNA knockdown: 87%

## RNA1{r(A)p.r(C)p.r(C)p.r(U)p.r(U)p.r(U)p.r(C)p.m(C)p.r(A)p.r(C)p.r(U)p.r(U)p.r(C)p.m(U)p.r(A)p.r(A)p.r(G)p.r(C)p.r(C)p.r(T)p.r(T)}|RNA2{r(G)p.r(G)p.r(C)p.r(U)p.m(U)p.r(A)p.r(G)p.r(A)p.r(A)p.r(G)p.m(U)p.r(G)p.r(G)p.r(A)p.r(A)p.r(A)p.r(G)p.r(G)p.r(U)p.r(T)p.r(T)}$$$RNA1{StrandType:ss}|RNA2{StrandType:as}$
  target mRNA knockdown: 75%

## RNA1{m(C)p.r(C)p.m(G)p.r(A)p.m(A)p.r(G)p.m(A)p.r(C)p.m(G)p.r(A)p.m(A)p.r(G)p.m(C)p.r(U)p.m(A)p.r(U)p.m(G)p.r(A)p.m(A)p.r(T)p.r(T)}|RNA2{r(U)p.r(U)p.r(C)p.r(A)p.r(U)p.r(A)p.m(G)p.r(C)p.r(U)p.r(U)p.r(C)p.m(G)p.r(U)p.r(C)p.r(U)p.r(U)p.r(C)p.m(G)p.m(G)p.r(T)p.r(T)}$$$RNA1{StrandType:ss}|RNA2{StrandType:as}$
  target mRNA knockdown: 51%

## RNA1{[s4r](C)p.[s4r](G)p.[s4r](U)p.[s4r](A)p.r(C)p.r(G)p.r(C)p.r(G)p.r(G)p.r(A)p.r(A)p.r(U)p.r(A)p.r(C)p.r(U)p.[s4r](U)p.[s4r](C)p.[s4r](G)p.[s4r](A)p.r(T)p.r(T)}|RNA2{r(U)p.r(C)p.r(G)p.r(A)p.r(A)p.r(G)p.r(U)p.r(A)p.r(U)p.r(U)p.r(C)p.r(C)p.r(G)p.r(C)p.r(G)p.[s4r](U)p.[s4r](A)p.[s4r](C)p.[s4r](G)p.r(T)p.r(T)}$$$RNA1{StrandType:ss}|RNA2{StrandType:as}$
  target mRNA knockdown: 88.1%

## RNA1{[s4r](A)p.[s4r](A)p.[s4r](A)p.[s4r](C)p.[s4r](A)p.[s4r](U)p.r(G)p.r(C)p.r(A)p.r(G)p.r(A)p.r(A)p.r(A)p.[s4r](A)p.[s4r](U)p.[s4r](G)p.[s4r](C)p.[s4r](U)p.[s4r](G)p.r(T)p.r(T)}|RNA2{r(C)p.r(A)p.r(G)p.r(C)p.r(A)p.r(U)p.r(U)p.r(U)p.r(U)p.r(C)p.r(U)p.r(G)p.r(C)p.r(A)p.r(U)p.r(G)p.r(U)p.r(U)p.r(U)p.r(T)p.r(T)}$$$RNA1{StrandType:ss}|RNA2{StrandType:as}$
  target mRNA knockdown: 75.4% and 87%

Reference: the OligoGym collection
